Here are results for one compound from US20070280919A1, “Produce-treatment composition and method for treatment of fresh produce” (priority 2006, published 2007).

The structures appear in SMILES notation.

The subject of the assay is green mold (P. digitatum). Description: In vivo efficacy test on inoculated fruit, green mold incidence (FIG. 1). Also on record: species or system Penicillium digitatum. The following applies: fruit puncture-inoculated with P. digitatum, imazalil at 0.1%. How it is done:
In vivo efficacy tests for the formulation of Table 7 were carried out on Fallglo tangerines, pineapples, and Valencia oranges inoculated with Penicillium digtatum using a puncture method, in which the fruit was punctured with the tip of a 1 mm×1 mm probe that had been dipped into the inoculum solution (1×10^6 fungal spores/ml). The fruit was then subject to either a dip treatment procedure or a packingline dip treatment procedure twenty to twenty-four hours after inoculation. The dip treatment procedure involved dipping the inoculated fruit into the composition for one (1) minute. The packingline dip treatment procedure involved treating the fruit with suspensions or wax containing the produce-treatment composition using a non-recovery drip system through a simulated commercial packing line. Fruits were rotated on brush beds and contacted with chemicals for 15 to 20 seconds, and then dried at 50-54° C. for 1-2 minutes. In both procedures, the treated fruit was incubated at 21° C. with 95% relative humidity. FIG. 1 depicts a bar graph reporting the efficacy of the produce-treatment composition of Table 7 to green mold (P. digitatum), and comparing the results to those of a control (distilled water) and 0.1% imazalil. The inventive formulation reduced green-mold incidences to […], relative to untreated produce. […]

Compound `C=CCOC(Cn1ccnc1)c1ccc(Cl)cc1Cl` (centres unmarked) [imazalil] showed a green-mold incidences (treated 20-24 h later, incubated at 21° C., 95% RH) of 51%. Moreover, where the note is “relative to untreated produce”, the “reduction of green-mold incidences” value was 49%.
